What follows are compounds tested against STK4 (MST1) (Homo sapiens (Human), UniProt Q13043) (assay: Z-lyte biochemical IC50 assay (Invitrogen)). Settings: ATP concentration matched the Km.
Protocol: STK4 (MST1), STK3 (MST2); STK24 (MST3) and MST4 Assays
Biochemical IC50s were measured at Invitrogen using Z-lyte technology. Briefly, for STK4, the 2×STK4 (MST1)/Ser/Thr 07 mixture was prepared in 50 mM HEPES pH 7.5, 0.01% BRIJ35, 10 mM MgCl2, 1 mM EGTA. The final 10 μL Kinase Reaction consisted of 6.25-160 ng STK4 (MST1) and 2 μM Ser/Thr 07 in 50 mM HEPES pH 7.5, 0.01% BRIJ-35, 10 mM MgCl2, 1 mM EGTA. After the 1 hour Kinase Reaction incubation, 5 μL of a 1:100000 dilution of Development Reagent A was added. Compounds were screened in a 10 point titration with 3-fold serial dilutions starting at a concentration of 10 μM. The biochemical IC50s against other STK family members were measured similarly. The ATP concentration used matched the Km for each kinase.

Chain of STK4 (MST1) (Q13043 whole entry): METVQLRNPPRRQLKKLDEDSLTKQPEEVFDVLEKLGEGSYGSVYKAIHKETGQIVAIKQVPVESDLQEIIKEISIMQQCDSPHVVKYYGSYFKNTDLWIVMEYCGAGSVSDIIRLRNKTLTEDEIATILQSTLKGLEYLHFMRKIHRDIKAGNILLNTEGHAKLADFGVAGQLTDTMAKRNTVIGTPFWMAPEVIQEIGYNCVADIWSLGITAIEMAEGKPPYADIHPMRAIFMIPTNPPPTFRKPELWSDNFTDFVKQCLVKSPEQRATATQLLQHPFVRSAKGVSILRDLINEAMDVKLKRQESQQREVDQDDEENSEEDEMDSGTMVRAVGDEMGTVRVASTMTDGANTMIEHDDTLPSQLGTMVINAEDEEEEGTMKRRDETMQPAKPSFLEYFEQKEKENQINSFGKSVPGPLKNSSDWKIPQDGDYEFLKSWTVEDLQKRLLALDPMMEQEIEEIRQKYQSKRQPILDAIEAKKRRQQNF

Row | SMILES | IC50
1 | Cc1cc(N2CCOCC2)cc2[nH]c(-c3c(NC[C@@H](O)c4cccc(Cl)c4)cc[nH]c3=O)nc12 [BMS536924, reference compound] | 40 to 200 nM
2 | Nc1ncc(-c2cc(F)ccc2[N+](=O)[O-])cc1-c1ccc2c(c1)CCNC2=O [Compound I-7, 6-(2-amino-5-(5-fluoro-2-nitrophenyl)pyridin-3-yl)-3,4-dihydroisoquinolin-1(2H)-one] | > 900 nM
3 | COc1ccncc1-c1cnc(N)c(-c2ccc3c(c2)CCNC3=O)c1 [Compound I-8, 6-(6-amino-4′-methoxy-[3,3′-bipyridin]-5-yl)-3,4-dihydroisoquinolin-1(2H)-one] | > 900 nM
4 | N#Cc1cc(-c2cc(-c3cc([N+](=O)[O-])ccc3F)cnc2N)ccc1O [Compound I-11, 5-(2-amino-5-(2-fluoro-5-nitrophenyl)pyridin-3-yl)-2-hydroxybenzonitrile] | > 900 nM
5 | Cn1cnc2c(-c3cnc(N)c(-c4ccc5c(c4)CCNC5=O)c3)cccc21 [Compound I-14, 6-(2-amino-5-(1-methyl-1H-benzo[d]imidazol-4-yl)pyridin-3-yl)-3,4-dihydroisoquinolin-1(2H)-one] | 40 to 200 nM
6 | Nc1ncc(-c2cc(F)cc([N+](=O)[O-])c2)cc1-c1ccc2c(c1)CCNC2=O [Compound I-17, 6-(2-amino-5-(3-fluoro-5-nitrophenyl)pyridin-3-yl)-3,4-dihydroisoquinolin-1(2H)-one] | 40 to 200 nM
7 | Nc1ncc(-c2cc([N+](=O)[O-])cc(F)c2F)cc1-c1ccc2c(c1)CCNC2=O [Compound I-18, 6-(2-amino-5-(2,3-difluoro-5-nitrophenyl)pyridin-3-yl)-3,4-dihydroisoquinolin-1(2H)-one] | 40 to 200 nM
8 | NC(=O)c1ccc(-c2cc(-c3cc([N+](=O)[O-])ccc3F)cnc2N)cc1Cl [Compound I-30, 4-(2-amino-5-(2-fluoro-5-nitrophenyl)pyridin-3-yl)-2-chlorobenzamide] | 200 to 900 nM
9 | NC(=O)c1ccc(-c2cc(-c3cc([N+](=O)[O-])ccc3F)cnc2N)cc1 [Compound I-31, 4-(2-amino-5-(2-fluoro-5-nitrophenyl)pyridin-3-yl)benzamide] | 200 to 900 nM
10 | Nc1ncc(-c2cc([N+](=O)[O-])cnc2F)cc1-c1ccc2c(c1)CCNC2=O [Compound I-39, 6-(6-amino-2′-fluoro-5′-nitro-[3,3′-bipyridin]-5-yl)-3,4-dihydroisoquinolin-1(2H)-one] | 200 to 900 nM
11 | Nc1ncc(-c2ccc3ncsc3c2)cc1-c1ccc2c(c1)CCNC2=O [Compound I-44, 6-(2-amino-5-(benzo[d]thiazol-6-yl)pyridin-3-yl)-3,4-dihydroisoquinolin-1(2H)-one] | 40 to 200 nM
12 | C#Cc1cc(F)c(-c2cnc(N)c(-c3ccc4c(c3)CCNC4=O)c2)cc1[N+](=O)[O-] [Compound I-45, 6-(2-amino-5-(4-ethynyl-2-fluoro-5-nitrophenyl)pyridin-3-yl)-3,4-dihydroisoquinolin-1(2H)-one] | 40 to 200 nM
13 | CCOc1cc(S(=O)(=O)N(C)C2CC2)ccc1-c1cnc(N)c(-c2ccc3c(c2)CCNC3=O)c1 [Compound I-47, 4-(6-amino-5-(1-oxo-1,2,3,4-tetrahydroisoquinolin-6-yl)pyridin-3-yl)-N-cyclopropyl-3-ethoxy-N-methylbenzenesulfonamide] | < 40 nM
14 | CC(C)Oc1cc(S(=O)(=O)N(C)C2CC2)ccc1-c1cnc(N)c(-c2ccc3c(c2)CCNC3=O)c1 [Compound I-48, 4-(6-amino-5-(1-oxo-1,2,3,4-tetrahydroisoquinolin-6-yl)pyridin-3-yl)-N-cyclopropyl-3-isopropoxy-N-methylbenzenesulfonamide] | < 40 nM
15 | COc1cc(S(=O)(=O)NC2CC2)ccc1-c1cnc(N)c(-c2ccc3c(c2)CCNC3=O)c1 [Compound I-49, 4-(6-amino-5-(1-oxo-1,2,3,4-tetrahydroisoquinolin-6-yl)pyridin-3-yl)-N-cyclopropyl-3-methoxybenzenesulfonamide] | < 40 nM
16 | COc1cc(S(=O)(=O)N(C)C2CCCCC2)ccc1-c1cnc(N)c(-c2ccc3c(c2)CCNC3=O)c1 [Compound I-52, 4-(6-amino-5-(1-oxo-1,2,3,4-tetrahydroisoquinolin-6-yl)pyridin-3-yl)-N-cyclohexyl-3-methoxy-N-methylbenzenesulfonamide] | 40 to 200 nM
17 | COc1cc(S(=O)(=O)N(C)C2CCOCC2)ccc1-c1cnc(N)c(-c2ccc3c(c2)CCNC3=O)c1 [Compound I-53, 4-(6-amino-5-(1-oxo-1,2,3,4-tetrahydroisoquinolin-6-yl)pyridin-3-yl)-3-methoxy-N-methyl-N-(tetrahydro-2H-pyran-4-yl)benzenesulfonamide] | 40 to 200 nM
18 | Nc1ncc(-c2ccc([N+](=O)[O-])cc2F)cc1-c1ccc2c(c1)CCNC2=O [Compound I-54, 6-(2-amino-5-(2-fluoro-4-nitrophenyl)pyridin-3-yl)-3,4-dihydroisoquinolin-1(2H)-one] | 40 to 200 nM

Row | SMILES | IC50
19 | Nc1ncc(-c2cccc3scnc23)cc1-c1ccc2c(c1)CCNC2=O [Compound I-55, 6-(2-amino-5-(benzo[d]thiazol-4-yl)pyridin-3-yl)-3,4-dihydroisoquinolin-1(2H)-one] | 40 to 200 nM
20 | Nc1ncc(-c2cncc3ncsc23)cc1-c1ccc2c(c1)CCNC2=O [Compound I-56, 6-(2-amino-5-(thiazolo[4,5-c]pyridin-7-yl)pyridin-3-yl)-3,4-dihydroisoquinolin-1(2H)-one] | 200 to 900 nM
21 | Nc1ncc(-c2ccc(F)c3ncsc23)cc1-c1ccc2c(c1)CCNC2=O [Compound I-57, 6-(2-amino-5-(4-fluorobenzo[d]thiazol-7-yl)pyridin-3-yl)-3,4-dihydroisoquinolin-1(2H)-one] | < 40 nM
22 | Nc1ncc(-c2cccc(NS(=O)(=O)C3CC3)c2)cc1-c1ccc2c(c1)CCNC2=O [Compound I-58, N-(3-(6-amino-5-(1-oxo-1,2,3,4-tetrahydroisoquinolin-6-yl)pyridin-3-yl)phenyl) cyclopropanesulfonamide] | < 40 nM
23 | Nc1ncc(-c2cccc(-c3nccs3)c2)cc1-c1ccc2c(c1)CCNC2=O [Compound I-59, 6-(2-amino-5-(3-(thiazol-2-yl)phenyl)pyridin-3-yl)-3,4-dihydroisoquinolin-1(2H)-one] | < 40 nM
24 | COc1cc(-c2nccs2)ccc1-c1cnc(N)c(-c2ccc3c(c2)CCNC3=O)c1 [Compound I-60, 6-(2-amino-5-(2-methoxy-4-(thiazol-2-yl)phenyl)pyridin-3-yl)-3,4-dihydroisoquinolin-1(2H)-one] | 40 to 200 nM
25 | COc1cc(C#N)ccc1-c1cnc(N)c(-c2ccc3c(c2)CCNC3=O)c1 [Compound I-61, 4-(6-amino-5-(1-oxo-1,2,3,4-tetrahydroisoquinolin-6-yl)pyridin-3-yl)-3-methoxybenzonitrile] | < 40 nM
26 | CN1CCc2cc(-c3cc(-c4ccc(S(=O)(=O)N(C)C5CC5)cc4F)cnc3N)ccc2C1=O [Compound I-62, 4-(6-amino-5-(2-methyl-1-oxo-1,2,3,4-tetrahydroisoquinolin-6-yl)pyridin-3-yl)-N-cyclopropyl-3-fluoro-N-methylbenzenesulfonamide] | < 40 nM
27 | CN(C1CC1)S(=O)(=O)c1ccc(-c2cnc(N)c(-c3ccc4c(=O)[nH]cnc4c3)c2)c(F)c1 [Compound I-63, 4-(6-amino-5-(4-oxo-3,4-dihydroquinazolin-7-yl)pyridin-3-yl)-N-cyclopropyl-3-fluoro-N-methylbenzenesulfonamide] | < 40 nM
28 | Nc1ncc(-c2cccc3ncsc23)cc1-c1ccc2c(=O)[nH]cnc2c1 [Compound I-64, 7-(2-amino-5-(benzo[d]thiazol-7-yl)pyridin-3-yl)quinazolin-4(3H)-one] | 40 to 200 nM
29 | Nc1ncc(-c2ccc(NS(=O)(=O)C3CC3)cc2OCc2ccccc2)cc1-c1ccc2c(c1)CCNC2=O [Compound I-66, N-(4-(6-amino-5-(1-oxo-1,2,3,4-tetrahydroisoquinolin-6-yl)pyridin-3-yl)-3-(benzyloxy)phenyl) cyclopropanesulfonamide] | 40 to 200 nM
30 | CC(C)Oc1cc(NS(=O)(=O)C2CC2)ccc1-c1cnc(N)c(-c2ccc3c(c2)CCNC3=O)c1 [Compound I-67, N-(4-(6-amino-5-(1-oxo-1,2,3,4-tetrahydroisoquinolin-6-yl)pyridin-3-yl)-3-isopropoxyphenyl) cyclopropanesulfonamide] | < 40 nM
31 | CC(C)Oc1cc(S(=O)(=O)N(C)C2CC2)ccc1-c1cnc(N)c(-c2ccc3c(c2)CNC3=O)c1 [Compound I-68, 4-(6-amino-5-(1-oxoisoindolin-5-yl)pyridin-3-yl)-N-cyclopropyl-3-isopropoxy-N-methylbenzenesulfonamide] | < 40 nM
32 | Nc1ncc(-c2ccc(NS(=O)(=O)C3CC3)cc2OC2CCCC2)cc1-c1ccc2c(c1)CCNC2=O [Compound I-69, N-(4-(6-amino-5-(1-oxo-1,2,3,4-tetrahydroisoquinolin-6-yl)pyridin-3-yl)-3-(cyclopentyloxy)phenyl) cyclopropanesulfonamide] | < 40 nM
33 | Nc1ncc(-c2ccc(F)c3ncsc23)cc1-c1ccc2c(c1)CNC2=O [Compound I-70, 5-(2-amino-5-(4-fluorobenzo[d]thiazol-7-yl)pyridin-3-yI)isoindolin-1-one] | 40 to 200 nM
34 | Nc1ncc(-c2cccc(S(N)(=O)=O)c2)cc1-c1ccc2c(c1)CCNC2=O [Compound I-71, 3-(6-amino-5-(1-oxo-1,2,3,4-tetrahydroisoquinolin-6-yl)pyridin-3-yl)benzenesulfonamide] | 200 to 900 nM
35 | Nc1ncc(-c2cc3scnc3cc2F)cc1-c1ccc2c(c1)CCNC2=O [Compound I-73, 6-(2-amino-5-(5-fluorobenzo[d]thiazol-6-yl)pyridin-3-yl)-3,4-dihydroisoquinolin-1(2H)-one] | 40 to 200 nM

From patent publication US10710978B2, “STK4 inhibitors for treatment of hematologic malignancies” (Dana-Farber Cancer Institute, Inc., priority 2015, dated 2020)
